Results published in patent US6545002B1 (University of Virginia Patent Foundation, priority 1999, dated 2003).
Read-outs that look alike come from different tables or passages of the source.

What was measured:
[1] = biological target: T1, rat A2A receptors (rA2A) (Rattus norvegicus, UniProt P30543); assay: Displacement of [3H]CGS 21680 binding in rat striatal membranes
T1 construct: to A2A receptors from rat striatal membranes was performed as described; from tissue; host or cells: rat striatal membranes
Method: (§1) Bruns, R. F. et al., Naunyn-Schmiedeberg's Arch. […] Binding of [^3H]R-N^6-phenylisopropyladenosine. Schwabe, U. et al., Naunyn-Schmiedeberg's Arch. […] (Dupont NEN, Boston, Mass.) to A2A receptors from rat striatal membranes was performed as described. […] All non-radioactive compounds were initially dissolved in DMSO, and diluted with buffer to the final concentration, where the amount of DMSO never exceeded 2%. Incubations were terminated by rapid filtration over Whatman GF/B filters, using a Brandell cell harvester (Brandell, Gaithersburg, Md.). The tubes were rinsed three times with 3 mL buffer each.
(§2) At least six different concentrations of competitor, spanning 3 orders of magnitude adjusted appropriately for the IC50 of each compound, were used. IC50 values, calculated with the nonlinear regression method implemented in (Graph-Pad Prism, San Diego, Calif.), were converted to apparent Ki values as described. Linden, J., J. Cycl. Nucl.

[2] = biological target: T2, human A2B receptors (hA2B) (Homo sapiens, UniProt P29275); assay: Radioligand binding ([125I]ABOPX / [3H]ZM241385) at human A2B receptors expressed in HEK-293 cells; conditions: for rA1/hA2B: Ki ratio
T2 construct: expressed in transfected cells; host or cells: HEK-293 (HEK-A2B, G418-selected)
T2 sequence (P29275 1-332): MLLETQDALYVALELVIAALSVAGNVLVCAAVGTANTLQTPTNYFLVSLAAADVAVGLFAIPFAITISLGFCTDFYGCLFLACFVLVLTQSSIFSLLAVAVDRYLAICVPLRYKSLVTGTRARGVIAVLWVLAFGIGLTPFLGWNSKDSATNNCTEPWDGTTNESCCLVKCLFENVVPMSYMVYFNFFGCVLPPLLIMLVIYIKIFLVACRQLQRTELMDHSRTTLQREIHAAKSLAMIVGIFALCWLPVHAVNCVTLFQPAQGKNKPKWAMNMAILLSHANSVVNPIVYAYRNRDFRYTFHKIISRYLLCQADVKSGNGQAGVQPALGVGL

[3] = biological target: T3, human A3 receptors (hA3) (Homo sapiens, UniProt P0DMS8); assay: Displacement of [125I]ABA binding at human A3 receptors expressed in HEK-293 cells
T3 construct: expressed in transfected cells; host or cells: HEK-293
T3 sequence (P0DMS8 1-318): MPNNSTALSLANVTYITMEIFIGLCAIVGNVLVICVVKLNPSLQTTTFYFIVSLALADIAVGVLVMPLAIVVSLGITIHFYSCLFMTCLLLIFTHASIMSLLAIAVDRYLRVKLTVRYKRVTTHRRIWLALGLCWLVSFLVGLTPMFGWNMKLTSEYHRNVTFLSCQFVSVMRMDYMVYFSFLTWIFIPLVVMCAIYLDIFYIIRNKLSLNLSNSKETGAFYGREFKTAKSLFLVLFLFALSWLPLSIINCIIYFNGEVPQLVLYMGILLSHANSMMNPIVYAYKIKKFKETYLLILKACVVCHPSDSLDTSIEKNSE

[4] = biological target: T4, recombinant human A1 receptors (hA1) (Homo sapiens, UniProt P30542); assay: Radioligand binding ([3H]CPX) at recombinant human A1 receptors in HEK-293 cells
T4 sequence (P30542 1-326): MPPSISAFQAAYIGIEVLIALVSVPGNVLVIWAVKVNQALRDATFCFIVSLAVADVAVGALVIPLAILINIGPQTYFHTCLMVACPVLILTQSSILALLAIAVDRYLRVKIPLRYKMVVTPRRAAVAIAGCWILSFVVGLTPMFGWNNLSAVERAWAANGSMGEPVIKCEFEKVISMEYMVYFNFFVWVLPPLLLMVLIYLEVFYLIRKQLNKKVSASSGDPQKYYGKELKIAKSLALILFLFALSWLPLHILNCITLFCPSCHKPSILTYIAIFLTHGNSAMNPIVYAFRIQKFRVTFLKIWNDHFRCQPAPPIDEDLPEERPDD
Method: (§3) The potency of the xanthine derivatives at human A2B receptors was evaluated using two binding assays. […] In order to determine selectivity, the xanthines were evaluated using standard binding assays at A1, A2A, and A3 receptors.

[5] = biological target: recombinant human A2A receptors (hA2A) (Homo sapiens, UniProt P29274); assay: Radioligand binding (125I-ZM241385) at recombinant human A2A receptors in HEK-293 cells
Method: as §3

[6] = biological target: T5, rat A1 receptors (rA1) (Rattus norvegicus, UniProt P25099); assay: Displacement of [3H]R-PIA binding in rat brain (cerebral cortical) membranes
T5 construct: to A1 receptors from rat cerebral cortical membranes; from tissue; host or cells: rat cerebral cortical (brain) membranes
T5 sequence (P25099 1-326): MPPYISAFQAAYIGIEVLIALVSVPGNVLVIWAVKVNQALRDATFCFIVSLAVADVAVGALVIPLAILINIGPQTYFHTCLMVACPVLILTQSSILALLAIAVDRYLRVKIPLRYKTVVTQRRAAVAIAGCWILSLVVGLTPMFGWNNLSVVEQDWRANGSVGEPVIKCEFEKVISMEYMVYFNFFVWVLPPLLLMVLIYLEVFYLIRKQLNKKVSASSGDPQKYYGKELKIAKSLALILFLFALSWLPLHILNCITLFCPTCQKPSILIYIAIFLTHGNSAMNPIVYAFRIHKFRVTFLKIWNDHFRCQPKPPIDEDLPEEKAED
Method: as §1, §2

[7] = Table 2, read-out: rA2A Ki or IC50
[8] = Table 2, read-out: hA2B Ki or IC50
[9] = Table 2, read-out: hA3 Ki or IC50
[10] = read-out: hA1 Ki or IC50, Table 2
[11] = read-out: hA2A Ki or IC50, Table 2
[12] = Table 2, read-out: rA1 Ki or IC50
[13] = read-out: Ki value at human A2B receptors
[14] = Table 4, footnote a: [125I]-ABOPX, read-out: hA2B Ki (value marked ^a) (converted)
[15] = Table 4, unmarked value, first of two binding assays, read-out: hA2B Ki
[16] = Table 4, footnote a: [125I]ABA, read-out: hA3 Ki (value marked ^a)
[17] = read-out: hA1 Ki, values marked (h)^a, Table 4, vs [3H]CPX, HEK-293
[18] = read-out: hA2A Ki, values marked (h)^a, Table 4, vs [125I]ZM241385, HEK-293

T1 sequence (P30543 whole entry): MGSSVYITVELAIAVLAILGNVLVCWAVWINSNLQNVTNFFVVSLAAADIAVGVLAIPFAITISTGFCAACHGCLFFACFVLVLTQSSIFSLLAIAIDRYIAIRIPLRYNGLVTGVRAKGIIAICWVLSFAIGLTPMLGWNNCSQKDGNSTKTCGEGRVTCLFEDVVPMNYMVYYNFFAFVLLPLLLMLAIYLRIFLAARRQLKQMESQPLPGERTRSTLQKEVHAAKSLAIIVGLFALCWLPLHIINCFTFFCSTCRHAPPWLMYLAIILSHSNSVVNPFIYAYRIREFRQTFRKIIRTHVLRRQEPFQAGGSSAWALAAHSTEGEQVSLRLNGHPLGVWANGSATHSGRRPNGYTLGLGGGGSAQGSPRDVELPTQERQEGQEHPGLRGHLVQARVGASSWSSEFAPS
Sequence of recombinant human A2A receptors (hA2A) (P29274 whole entry): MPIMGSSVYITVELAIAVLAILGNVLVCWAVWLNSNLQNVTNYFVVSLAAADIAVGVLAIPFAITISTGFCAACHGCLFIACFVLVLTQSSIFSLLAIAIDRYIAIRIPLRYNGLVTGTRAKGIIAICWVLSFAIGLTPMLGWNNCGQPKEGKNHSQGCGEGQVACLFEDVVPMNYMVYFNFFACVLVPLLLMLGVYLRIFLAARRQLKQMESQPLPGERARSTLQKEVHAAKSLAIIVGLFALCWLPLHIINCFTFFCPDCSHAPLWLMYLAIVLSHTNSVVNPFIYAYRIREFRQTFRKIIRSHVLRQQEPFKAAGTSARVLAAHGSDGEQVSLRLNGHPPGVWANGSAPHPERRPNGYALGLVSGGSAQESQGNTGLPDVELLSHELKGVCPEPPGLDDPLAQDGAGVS

Row | Ki [1, 7] [nM] | Ki [2, 8] [nM] | Ki [3, 9] [nM] | melting point [°C] | Ki [4, 10] [nM] | Ki [5, 11] [nM] | Ki [6, 12] [nM] | SMILES | other results
1 | 45.6 ± 1.4 | 1.48 ± 0.63 | 137 ± 54 | 301 to 302 | 40.1 ± 5.1 | 25.8 ± 4.5 |  | CCCn1c(=O)c2[nH]c(-c3ccc(OCC(=O)Nc4ccccc4)cc3)nc2n(CCC)c1=O [Compound 12, 8-[4-[(Phenylcarbamoylmethyl)oxy]phenyl]-1,3-di-(n-propyl)-xanthine] | 
2 |  |  | 79.2 ± 17.8 | 268 | 54.7 ± 21.2 |  | 5.02 ± 0.55 | CCCn1c(=O)c2[nH]c(-c3ccc(OCC(=O)NCc4ccccc4)cc3)nc2n(CCC)c1=O [Compound 13, 8-[4-[(Benzylcarbamoylmethyl)oxy]phenyl]-1,3-di-(n-propyl)-xanthine] | Ki ([1]; read-out: rA2A Ki or IC50): 25.9 ± 7.6 nM; Ki ([5]; read-out: hA2A Ki or IC50): 23.8 ± 5.71 nM
3 | 2750 | 9.88 ± 1.05 | 284 ± 14 | 230 | 690 ± 98 | 642 ± 198 | 167 ± 49 | CCCn1c(=O)c2[nH]c(-c3ccc(OCC(=O)N(Cc4ccccc4)Cc4ccccc4)cc3)nc2n(CCC)c1=O [Compound 15, 8-[4-[(Dibenzylcarbamoylmethyl)oxy]phenyl]-1,3-di-(n-propyl)-xanthine] | 
4 | 434 ± 129 | 2.74 ± 1.01 | 61.9 ± 3.4 | 294 | 335 ± 64 | 431 ± 176 | 27.9 ± 1.6 | CCCn1c(=O)c2[nH]c(-c3ccc(OCC(=O)Nc4ccccc4C(C)=O)cc3)nc2n(CCC)c1=O [Compound 18, 8-[4-[((2-Acetylphenyl)carbamoylmethyl)oxy]phenyl]-1,3-di-(n-propyl)xanthine] | selectivity for human A2B versus human A1 receptors [2]: 120 fold; selectivity for human A2B versus human A2A receptors [2]: 160 fold; selectivity for human A2B versus human A3 receptors [2]: 23 fold; selectivity for human A2B versus rat A1 receptors [2]: 10 fold; selectivity for human A2B versus rat A2A receptors [2]: 160 fold
5 | 949 ± 394 | 4.92 ± 0.55 | 352 ± 69 | 269 to 270 | 234 ± 28 | 58.9 ± 7.1 | 439 ± 111 | CCCn1c(=O)c2[nH]c(-c3ccc(OCC(=O)Nc4cccc(C(C)=O)c4)cc3)nc2n(CCC)c1=O [Compound 19, 8-[4-[((3-Acetylphenyl)carbamoylmethyl)oxy]phenyl]-1,3-di-(n-propyl)xanthine] | 
6 | 541 ± 128 | 3.93 ± 1.35 | 363 ± 148 | > 310 | 225 ± 9 | 3100 | 38.4 ± 3.9 | CCCn1c(=O)c2[nH]c(-c3ccc(OCC(=O)Nc4ccc(C(=O)OC)cc4)cc3)nc2n(CCC)c1=O [Compound 21, 8-[4-[((4-Methoxycarbonyl)phenylcarbamoylmethyl)oxy]phenyl]-1,3-di-(n-propyl)xanthine] | 
7 | 917 ± 258 |  | 213 ± 94 | > 310 | 61.2 ± 8.2 | 238 ± 28 | 44.6 ± 6.5 | CCCn1c(=O)c2[nH]c(-c3ccc(OCC(=O)Nc4ccc(C(F)(F)F)cc4)cc3)nc2n(CCC)c1=O [Compound 29, 8-[4-[((4-Trifluoromethyl)phenylcarbamoylmethyl)oxy]phenyl]-1,3-di-(n-propyl)xanthine] | Ki [2, 13]: 2.14 nM
8 | 988 ± 518 | 2.22 ± 0.19 | 391 ± 147 | 298 | 17.9 ± 4.5 | 16.6 ± 3.6 | 2.72 ± 0.51 | CCCn1c(=O)c2[nH]c(-c3ccc(OCC(=O)Nc4ccc(F)cc4)cc3)nc2n(CCC)c1=O [Compound 30, 8-[4-[((4-Fluoro)phenylcarbamoylmethyl)oxy]phenyl]-1,3-di-(n-propyl)xanthine] | selectivity for human A2B versus rat A1 receptors [2]: 1 fold
9 |  |  |  | 281 to 283 |  |  |  | CCCn1c(=O)c2[nH]c(-c3ccc(/C=C/C(=O)Nc4ccccc4C(C)=O)cc3)nc2n(CCC)c1=O [Compound 35, 8-[4(2-(2-Acetylphenyl)carbamoyl-trans-vinyl)phenyl]-1,3-di-(n-propyl)xanthine] | Ki ([6]; Table 3, read-out: rA1 Ki or IC50): 7.67 ± 2.2 nM; Ki ([1]; Table 3, read-out: rA2A Ki or IC50): 143 ± 50 nM; Ki ([2]; Table 3, read-out: hA2B Ki or IC50): 3.65 ± 0.98 nM; Ki ([3]; Table 3, read-out: hA3 Ki or IC50): 121 ± 138 nM
10 |  |  |  |  |  |  |  | CCCn1c(=O)c2[nH]c(-c3ccc(OCC(=O)NNC(C)=O)cc3)nc2n(CCC)c1=O [Compound 41, 8-[4-[(Carboxymethyl)oxy]phenyl]-1,3-di-(n-propyl)xanthine N-Acetylhydrazide] | Ki ([6]; Table 4, read-out: rA1 Ki): 6.51 ± 1.24 nM; Ki ([1]; Table 4, read-out: rA2A Ki): 227 ± 64 nM; rA1/hA2B ([2]; Table 4): 0.10; Ki [2, 14]: 33.8 ± 13.7 nM; Ki [2, 15]: 65.4 ± 6.5 nM; Ki [3, 16]: 30.9 ± 8.2 nM; Ki [4, 17]: 125 ± 14 nM; Ki [5, 18]: 186 ± 9 nM
11 |  |  |  |  |  |  |  | CCCn1c(=O)[nH]c(=O)c2[nH]c(-c3ccc(OCC(=O)NN4C(=O)C(C)=C(C)C4=O)cc3)nc21 [Compound 48] | Ki ([6]; Table 4, read-out: rA1 Ki): 3590 ± 920 nM; rA2A % displacement of specific binding ([1]; Table 4, at 100,000 nM): 36 ± 4%; rA1/hA2B ([2]; Table 4): 2.0; Ki [2, 14]: 1900 nM; Ki [2, 15]: 1800 nM; Ki [3, 16]: 14200 nM; Ki [4, 17]: 8080 nM; Ki [5, 18]: 5480 nM
12 |  |  |  |  |  |  |  | CCCn1c(=O)c2[nH]c(-c3ccc(OCC(=O)NN4C(=O)c5ccccc5C4=O)cc3)nc2n(CCC)c1=O [Compound 57, 8-[4-[(Carboxymethyl)oxy]phenyl]-1,3-di-(n-propyl)xanthine N,N-Phthaloylhydrazide] | Ki ([6]; Table 4, read-out: rA1 Ki): 26.3 ± 2.3 nM; Ki ([1]; Table 4, read-out: rA2A Ki): 392 ± 117 nM; rA1/hA2B ([2]; Table 4): 0.41; Ki [2, 14]: 46.4 nM; Ki [2, 15]: 64.4 ± 0.8 nM; Ki [3, 16]: 147 ± 21 nM; Ki [4, 17]: 210 nM; Ki [5, 18]: 359 nM

Row | SMILES | Ki [1, 7] [nM] | Ki [2, 8] [nM] | Ki [3, 9] [nM] | melting point [°C] | Ki [4, 10] [nM] | Ki [5, 11] [nM] | Ki [6, 12] [nM] | other results
13 | CCCn1c(=O)c2[nH]c(-c3ccc(OCC(=O)Nc4ccc([N+](=O)[O-])cc4)cc3)nc2n(CCC)c1=O [Compound 28, 8-[4-[((4-Nitro)phenylcarbamoylmethyl)oxy]phenyl]-1,3-di-(n-propyl)xanthine] | 1180 |  | 138 ± 17.1 | 307 | 57 ± 3.1 | 70 ± 10.7 | 13.1 ± 3.9 | selectivity for human A2B versus human A1 receptors [2]: 35 fold; Ki [2, 13]: 1.52 nM
